Common to all, as to assay type: functional
In experiment [1] the target is Glycogen synthase kinase-3 beta (Homo sapiens, UniProt P49841). The experiment in a line: GSK3beta kinase inhibitors, dose response, biochemical, microfluidics, dry powder samples, set 2 (AID 623989).
In experiment [2] the target is T1, Sentrin-specific protease 8 (Homo sapiens, UniProt Q96LD8).
T1 sequence (Q96LD8 whole entry): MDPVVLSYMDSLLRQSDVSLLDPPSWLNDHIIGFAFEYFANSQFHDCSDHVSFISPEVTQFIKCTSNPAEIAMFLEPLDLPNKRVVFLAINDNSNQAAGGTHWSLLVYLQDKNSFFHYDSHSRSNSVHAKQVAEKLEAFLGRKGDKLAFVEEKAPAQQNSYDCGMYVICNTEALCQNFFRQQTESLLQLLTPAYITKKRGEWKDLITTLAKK
The experiment in a line: SENP8 protease inhibitors, SAR follow-up, biochemical, luminescence (AID 504501).

For experiment [3], the target named is T2, Caspase-3 (Homo sapiens, UniProt P42574).
T2 sequence (P42574 whole entry): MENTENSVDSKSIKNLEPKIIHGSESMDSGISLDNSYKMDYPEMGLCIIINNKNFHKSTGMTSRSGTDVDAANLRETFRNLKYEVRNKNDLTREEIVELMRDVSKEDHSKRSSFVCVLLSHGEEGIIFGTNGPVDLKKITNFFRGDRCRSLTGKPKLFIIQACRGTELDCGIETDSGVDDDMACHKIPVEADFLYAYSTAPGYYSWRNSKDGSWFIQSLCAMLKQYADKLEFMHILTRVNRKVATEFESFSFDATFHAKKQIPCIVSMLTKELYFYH
The experiment in a line: caspase-3 inhibitors as off-family protease, SAR follow-up, selectivity assay for SENP protease inhibitor project, biochemical, luminescence, set 2 (AID 588599).

Experiment [4] has as its target T1, Sentrin-specific protease 8. The experiment in a line: SENP8 protease inhibitors, SAR follow-up, biochemical, luminescence, set 2 (AID 588601).
For experiment [5], the target named is T2, Caspase-3. The experiment in a line: SAR Analysis of small molecule inhibitors of Sentrin-specific proteases (SENPs) using a Caspase-3 Selectivity assay. [Related pubchem assays (depositor defined):AID2540, AID2599, AID434973, AID489001].
Experiment [6] deals with T3, Sentrin-specific protease 7 (Homo sapiens, UniProt Q9BQF6).
T3 sequence (Q9BQF6 whole entry): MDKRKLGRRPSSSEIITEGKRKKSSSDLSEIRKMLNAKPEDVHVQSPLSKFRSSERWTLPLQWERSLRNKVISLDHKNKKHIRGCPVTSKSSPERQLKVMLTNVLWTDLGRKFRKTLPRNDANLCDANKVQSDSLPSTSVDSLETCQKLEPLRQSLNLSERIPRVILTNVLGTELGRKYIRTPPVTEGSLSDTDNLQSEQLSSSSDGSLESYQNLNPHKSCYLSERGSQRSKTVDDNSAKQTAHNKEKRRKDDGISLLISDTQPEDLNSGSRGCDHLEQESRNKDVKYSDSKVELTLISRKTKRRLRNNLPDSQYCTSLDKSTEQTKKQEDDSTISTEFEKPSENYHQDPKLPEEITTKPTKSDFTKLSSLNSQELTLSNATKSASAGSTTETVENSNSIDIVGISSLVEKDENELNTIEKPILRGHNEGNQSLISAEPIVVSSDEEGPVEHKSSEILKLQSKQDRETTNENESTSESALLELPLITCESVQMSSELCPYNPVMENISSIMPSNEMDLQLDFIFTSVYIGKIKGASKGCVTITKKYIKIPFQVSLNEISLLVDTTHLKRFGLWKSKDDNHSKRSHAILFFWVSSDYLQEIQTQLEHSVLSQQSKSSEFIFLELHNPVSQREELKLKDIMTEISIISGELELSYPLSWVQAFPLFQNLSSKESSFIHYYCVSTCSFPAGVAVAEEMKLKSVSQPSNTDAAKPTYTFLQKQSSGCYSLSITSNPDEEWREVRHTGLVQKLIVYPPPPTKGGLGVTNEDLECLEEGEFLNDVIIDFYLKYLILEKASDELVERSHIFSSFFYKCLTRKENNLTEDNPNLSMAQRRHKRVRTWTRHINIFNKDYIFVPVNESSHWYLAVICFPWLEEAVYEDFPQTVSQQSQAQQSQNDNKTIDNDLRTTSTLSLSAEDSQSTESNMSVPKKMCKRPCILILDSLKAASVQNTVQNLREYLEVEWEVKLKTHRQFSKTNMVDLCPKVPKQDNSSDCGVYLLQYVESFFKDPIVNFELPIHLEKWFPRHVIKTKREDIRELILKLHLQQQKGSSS
Put plainly: SENP7 protease inhibitors, SAR follow-up, biochemical, luminescence, set 2 (AID 588600).

Experiment [7] has as its target T4, Sentrin-specific protease 6 (Homo sapiens, UniProt Q9GZR1).
T4 sequence (Q9GZR1 whole entry): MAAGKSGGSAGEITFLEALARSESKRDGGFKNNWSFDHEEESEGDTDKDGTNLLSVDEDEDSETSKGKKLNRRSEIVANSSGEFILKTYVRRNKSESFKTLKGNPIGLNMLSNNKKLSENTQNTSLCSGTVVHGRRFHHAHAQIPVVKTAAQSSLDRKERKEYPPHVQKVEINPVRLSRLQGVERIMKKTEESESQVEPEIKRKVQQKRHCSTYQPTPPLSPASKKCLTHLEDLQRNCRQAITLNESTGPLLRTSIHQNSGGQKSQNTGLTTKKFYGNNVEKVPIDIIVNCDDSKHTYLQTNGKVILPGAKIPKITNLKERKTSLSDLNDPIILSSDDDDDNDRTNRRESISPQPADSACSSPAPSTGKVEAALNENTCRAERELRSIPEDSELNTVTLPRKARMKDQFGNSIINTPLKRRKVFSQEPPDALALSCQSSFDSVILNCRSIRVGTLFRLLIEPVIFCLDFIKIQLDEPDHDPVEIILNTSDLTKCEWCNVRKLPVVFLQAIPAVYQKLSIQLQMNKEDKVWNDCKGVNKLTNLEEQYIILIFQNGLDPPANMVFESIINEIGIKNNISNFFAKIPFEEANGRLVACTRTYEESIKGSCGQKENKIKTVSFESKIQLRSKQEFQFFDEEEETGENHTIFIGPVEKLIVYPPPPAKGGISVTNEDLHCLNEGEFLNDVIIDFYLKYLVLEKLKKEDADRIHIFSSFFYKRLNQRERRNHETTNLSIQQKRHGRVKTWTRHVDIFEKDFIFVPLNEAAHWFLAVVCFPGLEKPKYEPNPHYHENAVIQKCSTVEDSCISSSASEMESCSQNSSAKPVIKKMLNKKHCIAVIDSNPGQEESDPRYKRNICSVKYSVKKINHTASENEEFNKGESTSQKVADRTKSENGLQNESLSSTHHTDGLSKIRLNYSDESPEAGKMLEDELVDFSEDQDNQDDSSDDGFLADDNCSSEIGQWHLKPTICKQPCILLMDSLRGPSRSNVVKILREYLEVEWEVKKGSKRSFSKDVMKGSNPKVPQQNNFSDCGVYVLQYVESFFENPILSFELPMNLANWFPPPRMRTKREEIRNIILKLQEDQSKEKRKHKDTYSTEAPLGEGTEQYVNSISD
The experiment in a line: SAR Analysis of small molecule inhibitors of Sentrin-specific protease 6 (SENP6) using a Luminescent assay. [Related pubchem assays (depositor defined):AID2582, AID2599].

Experiment [8] has as its target T4, Sentrin-specific protease 6. Put plainly: SENP6 protease inhibitors, SAR follow-up, biochemical, luminescence, set 2 (AID 588598).
The target in experiment [9] is T3, Sentrin-specific protease 7. The experiment in a line: SENP7 protease inhibitors, SAR follow-up, biochemical, luminescence (AID 504497).
Experiment [10] in a line: Vero cell cytotoxicity, dose response, cytotoxicity control for M. tuberculosis growth inhibitor project, Vero cells, purified and synthesized compounds, set 5 (AID 504909). The note with it: Mycobacterium tuberculosis.
Experiment [11] is described as follows: THP-1 cell cytotoxicity, cytotoxicity control, set 4 (AID 504911). The note with it: Mycobacterium tuberculosis.
A short description of experiment [12]: THP-1 cell cytotoxicity, dose response, cytotoxicity control, set 3 (AID 504852). As to conditions: Mycobacterium tuberculosis.
The nature of experiment [13]: Vero cell cytotoxicity, dose response, cytotoxicity control for M. tuberculosis growth inhibitor project, Vero cells, purified and synthesized compounds, set 4 (AID 504854). The note with it: Mycobacterium tuberculosis.
The target in experiment [14] is DNA dC->dU-editing enzyme APOBEC-3G (Homo sapiens, UniProt Q9HC16). Put plainly: APOBEC3G deaminase inhibitors, SAR follow-up, biochemical, fluorescence, single-stranded DNA substrate (AID 602136). The note with it: read-out: IC50_Mean.
The target in experiment [15] is DNA dC->dU-editing enzyme APOBEC-3A (Homo sapiens, UniProt P31941). The experiment in a line: SAR analysis of small molecule inhibitors of APOBEC3A DNA Deaminase via a fluorescence-based single-stranded DNA deaminase assay. The note with it: read-out: IC50_Mean.
Experiment [16] addresses Mast/stem cell growth factor receptor Kit (Homo sapiens, UniProt P10721).
Experiment [17] concerns the target Tyrosine-protein kinase Blk (Homo sapiens, UniProt P51451).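 Also: obtained as one member of a kinome-wide kinase assay panel.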
For experiment [18], the target named is Tyrosine-protein kinase ABL1 (Homo sapiens, UniProt P00519).
The target of experiment [19] is Macrophage colony-stimulating factor 1 receptor (Homo sapiens, UniProt P07333).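 Also: value comes from the Navigating the Kinome screening panel, CSF1R member.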
The target in experiment [20] is Melanin-concentrating hormone receptor 1 (Homo sapiens, UniProt Q99705). Put plainly: Late-stage fluorescence-based counterscreen for antagonists of the G-protein coupled receptor 7 (GPR7): cell-based dose response assay to identify antagonists of the melanin-concentrating hormone receptor 1 (MCHR1) Set 6. Background: Counterscreens check selectivity or assay interference.

In experiment [21] the target is Neuropeptides B/W receptor type 1 (Homo sapiens, UniProt P48145). Put plainly: GPR7 antagonist potency, late-stage follow-up, cell-based, fluorescence, dose response, set 6 (AID 588583).
The target of experiment [22] is T5, Short transient receptor potential channel 4 (Mus musculus, UniProt Q9QUQ5).
T5 sequence (Q9QUQ5 whole entry): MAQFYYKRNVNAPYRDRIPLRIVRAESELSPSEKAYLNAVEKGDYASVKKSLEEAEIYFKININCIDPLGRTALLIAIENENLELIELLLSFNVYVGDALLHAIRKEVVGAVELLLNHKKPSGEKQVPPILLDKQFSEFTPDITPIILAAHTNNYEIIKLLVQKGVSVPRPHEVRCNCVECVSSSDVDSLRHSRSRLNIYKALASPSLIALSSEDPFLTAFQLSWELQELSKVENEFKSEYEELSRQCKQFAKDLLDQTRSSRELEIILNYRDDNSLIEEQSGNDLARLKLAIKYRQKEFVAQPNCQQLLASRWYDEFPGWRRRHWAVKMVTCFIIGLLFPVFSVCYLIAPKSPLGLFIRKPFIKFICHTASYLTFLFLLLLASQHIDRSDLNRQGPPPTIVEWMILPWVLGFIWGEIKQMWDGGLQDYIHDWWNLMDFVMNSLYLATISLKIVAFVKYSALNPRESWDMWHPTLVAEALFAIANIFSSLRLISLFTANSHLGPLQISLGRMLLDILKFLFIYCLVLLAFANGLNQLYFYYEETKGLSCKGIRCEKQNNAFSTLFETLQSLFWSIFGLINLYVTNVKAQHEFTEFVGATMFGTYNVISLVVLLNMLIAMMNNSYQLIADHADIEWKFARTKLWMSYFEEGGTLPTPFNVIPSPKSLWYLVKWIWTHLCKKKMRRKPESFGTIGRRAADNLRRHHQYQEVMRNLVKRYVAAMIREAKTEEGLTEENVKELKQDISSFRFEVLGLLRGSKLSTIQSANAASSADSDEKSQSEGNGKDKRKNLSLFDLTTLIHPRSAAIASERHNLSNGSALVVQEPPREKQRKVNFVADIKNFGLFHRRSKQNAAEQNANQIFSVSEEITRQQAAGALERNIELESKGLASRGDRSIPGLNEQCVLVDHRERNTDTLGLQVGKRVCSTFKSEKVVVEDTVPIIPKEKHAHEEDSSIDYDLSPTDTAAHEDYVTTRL
The experiment in a line: mouse TRPC4 channel inhibitors, dose response, cell-based, HEK293 TRPC4/mu-opioid, Fluo-4 calcium (AID 434942).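 Also: potency of inhibitors blocking the TRPC4 calcium response.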

Experiment [23] has as its target Protein disulfide-isomerase (Homo sapiens, UniProt P07237). The experiment in a line: PDI inhibitors, insulin aggregation turbidity, dose response, biochemical, absorbance, cherry-picked samples (AID 602350).

The source made the active and inactive calls.

Tyrosine-protein kinase Blk, sequence (P51451 whole entry): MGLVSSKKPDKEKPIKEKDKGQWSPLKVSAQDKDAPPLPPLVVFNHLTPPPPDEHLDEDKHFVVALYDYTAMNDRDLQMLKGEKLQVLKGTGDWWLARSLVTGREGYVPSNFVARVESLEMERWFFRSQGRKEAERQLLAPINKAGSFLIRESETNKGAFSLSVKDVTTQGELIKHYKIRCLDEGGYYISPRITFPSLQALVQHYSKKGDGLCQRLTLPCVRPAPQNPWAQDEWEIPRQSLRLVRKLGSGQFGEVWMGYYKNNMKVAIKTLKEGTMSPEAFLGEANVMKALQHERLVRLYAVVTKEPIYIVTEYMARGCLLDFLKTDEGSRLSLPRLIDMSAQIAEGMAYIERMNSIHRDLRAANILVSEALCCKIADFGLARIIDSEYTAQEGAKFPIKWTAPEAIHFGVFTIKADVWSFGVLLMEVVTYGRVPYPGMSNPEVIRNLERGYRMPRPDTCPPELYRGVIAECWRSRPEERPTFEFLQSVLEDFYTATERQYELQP
Glycogen synthase kinase-3 beta, sequence (P49841 whole entry): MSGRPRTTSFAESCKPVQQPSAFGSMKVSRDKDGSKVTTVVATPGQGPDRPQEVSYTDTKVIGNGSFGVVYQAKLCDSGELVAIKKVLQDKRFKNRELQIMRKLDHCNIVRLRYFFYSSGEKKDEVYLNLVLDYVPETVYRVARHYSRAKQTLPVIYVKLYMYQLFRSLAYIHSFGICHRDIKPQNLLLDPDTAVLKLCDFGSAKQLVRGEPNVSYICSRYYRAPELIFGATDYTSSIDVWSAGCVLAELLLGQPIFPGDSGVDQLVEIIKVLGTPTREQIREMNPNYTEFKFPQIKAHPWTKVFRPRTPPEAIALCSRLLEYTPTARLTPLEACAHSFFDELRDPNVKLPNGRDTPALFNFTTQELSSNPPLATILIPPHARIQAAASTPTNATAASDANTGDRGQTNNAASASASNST
Protein disulfide-isomerase, sequence (P07237 whole entry): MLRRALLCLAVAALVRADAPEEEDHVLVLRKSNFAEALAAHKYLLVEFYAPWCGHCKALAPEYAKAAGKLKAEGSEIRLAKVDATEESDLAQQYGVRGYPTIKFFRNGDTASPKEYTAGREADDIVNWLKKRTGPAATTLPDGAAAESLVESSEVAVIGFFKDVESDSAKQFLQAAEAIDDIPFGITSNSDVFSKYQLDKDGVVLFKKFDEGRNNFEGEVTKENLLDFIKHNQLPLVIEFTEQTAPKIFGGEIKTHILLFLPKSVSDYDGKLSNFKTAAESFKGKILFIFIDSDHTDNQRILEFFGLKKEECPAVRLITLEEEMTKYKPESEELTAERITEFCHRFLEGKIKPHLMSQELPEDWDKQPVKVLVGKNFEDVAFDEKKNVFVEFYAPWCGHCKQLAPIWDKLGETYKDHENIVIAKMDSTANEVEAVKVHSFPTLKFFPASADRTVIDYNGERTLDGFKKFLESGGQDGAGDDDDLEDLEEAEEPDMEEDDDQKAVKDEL
DNA dC->dU-editing enzyme APOBEC-3G, sequence (Q9HC16 whole entry): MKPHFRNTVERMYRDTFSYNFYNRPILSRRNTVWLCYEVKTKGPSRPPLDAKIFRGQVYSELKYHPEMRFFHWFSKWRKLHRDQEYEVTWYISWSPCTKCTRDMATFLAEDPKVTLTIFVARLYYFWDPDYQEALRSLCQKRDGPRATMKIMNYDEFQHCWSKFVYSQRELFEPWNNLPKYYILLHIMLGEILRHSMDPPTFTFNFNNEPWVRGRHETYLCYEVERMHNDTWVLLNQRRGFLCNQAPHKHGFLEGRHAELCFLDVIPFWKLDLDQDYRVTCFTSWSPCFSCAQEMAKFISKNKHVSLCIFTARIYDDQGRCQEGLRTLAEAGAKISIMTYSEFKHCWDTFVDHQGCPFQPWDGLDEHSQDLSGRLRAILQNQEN
DNA dC->dU-editing enzyme APOBEC-3A, sequence (P31941 whole entry): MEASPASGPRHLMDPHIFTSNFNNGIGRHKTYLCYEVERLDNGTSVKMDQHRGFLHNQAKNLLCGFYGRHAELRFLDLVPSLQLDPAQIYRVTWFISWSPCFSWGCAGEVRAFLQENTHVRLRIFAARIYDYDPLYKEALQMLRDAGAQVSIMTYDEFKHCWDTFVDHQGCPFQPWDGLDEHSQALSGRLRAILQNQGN
Neuropeptides B/W receptor type 1, sequence (P48145 whole entry): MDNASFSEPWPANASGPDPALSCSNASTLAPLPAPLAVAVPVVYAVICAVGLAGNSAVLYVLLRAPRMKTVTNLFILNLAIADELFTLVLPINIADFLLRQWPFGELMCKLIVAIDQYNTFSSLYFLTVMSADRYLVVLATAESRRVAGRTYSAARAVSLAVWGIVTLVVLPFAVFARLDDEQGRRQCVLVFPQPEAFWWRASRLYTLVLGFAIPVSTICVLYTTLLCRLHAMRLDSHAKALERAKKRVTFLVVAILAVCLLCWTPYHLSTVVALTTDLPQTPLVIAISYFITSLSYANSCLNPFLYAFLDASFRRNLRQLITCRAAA
Melanin-concentrating hormone receptor 1, sequence (Q99705 whole entry): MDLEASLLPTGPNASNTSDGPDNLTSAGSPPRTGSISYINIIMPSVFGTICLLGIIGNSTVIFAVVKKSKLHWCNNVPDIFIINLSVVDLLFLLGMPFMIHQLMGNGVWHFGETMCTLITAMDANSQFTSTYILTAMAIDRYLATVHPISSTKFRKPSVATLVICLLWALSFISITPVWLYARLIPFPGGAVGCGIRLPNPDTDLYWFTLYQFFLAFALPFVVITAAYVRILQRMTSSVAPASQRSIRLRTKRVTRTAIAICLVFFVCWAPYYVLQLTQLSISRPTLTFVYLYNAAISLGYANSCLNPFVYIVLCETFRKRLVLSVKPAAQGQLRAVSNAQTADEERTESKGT
Tyrosine-protein kinase ABL1, sequence (P00519 whole entry): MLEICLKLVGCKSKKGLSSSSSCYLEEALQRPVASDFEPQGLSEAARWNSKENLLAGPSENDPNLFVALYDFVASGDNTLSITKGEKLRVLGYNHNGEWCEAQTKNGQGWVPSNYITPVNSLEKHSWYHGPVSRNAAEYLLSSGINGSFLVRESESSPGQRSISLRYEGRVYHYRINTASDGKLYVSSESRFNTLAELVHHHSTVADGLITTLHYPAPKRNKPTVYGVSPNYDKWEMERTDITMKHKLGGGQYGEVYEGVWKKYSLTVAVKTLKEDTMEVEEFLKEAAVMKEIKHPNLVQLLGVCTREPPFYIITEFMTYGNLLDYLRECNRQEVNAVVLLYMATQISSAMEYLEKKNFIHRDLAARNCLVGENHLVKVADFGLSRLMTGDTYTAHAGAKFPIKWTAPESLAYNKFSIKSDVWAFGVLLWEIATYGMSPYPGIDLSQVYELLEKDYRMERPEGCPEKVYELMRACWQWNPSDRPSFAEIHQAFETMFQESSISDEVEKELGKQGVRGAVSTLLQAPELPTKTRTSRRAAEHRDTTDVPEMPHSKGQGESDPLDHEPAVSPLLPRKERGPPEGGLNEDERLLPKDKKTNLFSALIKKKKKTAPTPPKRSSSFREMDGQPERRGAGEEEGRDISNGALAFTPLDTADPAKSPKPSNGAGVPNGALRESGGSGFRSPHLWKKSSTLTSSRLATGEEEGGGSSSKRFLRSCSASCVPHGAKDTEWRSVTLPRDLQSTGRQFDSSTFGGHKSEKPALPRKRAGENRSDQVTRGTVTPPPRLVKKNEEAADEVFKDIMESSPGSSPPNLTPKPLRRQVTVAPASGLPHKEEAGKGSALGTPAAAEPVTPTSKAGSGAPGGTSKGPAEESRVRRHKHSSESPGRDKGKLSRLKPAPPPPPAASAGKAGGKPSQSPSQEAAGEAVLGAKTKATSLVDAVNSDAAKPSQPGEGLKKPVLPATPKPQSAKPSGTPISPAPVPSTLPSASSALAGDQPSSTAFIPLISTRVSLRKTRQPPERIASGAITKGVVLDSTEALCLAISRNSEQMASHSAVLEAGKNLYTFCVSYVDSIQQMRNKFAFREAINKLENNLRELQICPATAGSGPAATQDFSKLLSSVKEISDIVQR
Macrophage colony-stimulating factor 1 receptor, sequence (P07333 whole entry): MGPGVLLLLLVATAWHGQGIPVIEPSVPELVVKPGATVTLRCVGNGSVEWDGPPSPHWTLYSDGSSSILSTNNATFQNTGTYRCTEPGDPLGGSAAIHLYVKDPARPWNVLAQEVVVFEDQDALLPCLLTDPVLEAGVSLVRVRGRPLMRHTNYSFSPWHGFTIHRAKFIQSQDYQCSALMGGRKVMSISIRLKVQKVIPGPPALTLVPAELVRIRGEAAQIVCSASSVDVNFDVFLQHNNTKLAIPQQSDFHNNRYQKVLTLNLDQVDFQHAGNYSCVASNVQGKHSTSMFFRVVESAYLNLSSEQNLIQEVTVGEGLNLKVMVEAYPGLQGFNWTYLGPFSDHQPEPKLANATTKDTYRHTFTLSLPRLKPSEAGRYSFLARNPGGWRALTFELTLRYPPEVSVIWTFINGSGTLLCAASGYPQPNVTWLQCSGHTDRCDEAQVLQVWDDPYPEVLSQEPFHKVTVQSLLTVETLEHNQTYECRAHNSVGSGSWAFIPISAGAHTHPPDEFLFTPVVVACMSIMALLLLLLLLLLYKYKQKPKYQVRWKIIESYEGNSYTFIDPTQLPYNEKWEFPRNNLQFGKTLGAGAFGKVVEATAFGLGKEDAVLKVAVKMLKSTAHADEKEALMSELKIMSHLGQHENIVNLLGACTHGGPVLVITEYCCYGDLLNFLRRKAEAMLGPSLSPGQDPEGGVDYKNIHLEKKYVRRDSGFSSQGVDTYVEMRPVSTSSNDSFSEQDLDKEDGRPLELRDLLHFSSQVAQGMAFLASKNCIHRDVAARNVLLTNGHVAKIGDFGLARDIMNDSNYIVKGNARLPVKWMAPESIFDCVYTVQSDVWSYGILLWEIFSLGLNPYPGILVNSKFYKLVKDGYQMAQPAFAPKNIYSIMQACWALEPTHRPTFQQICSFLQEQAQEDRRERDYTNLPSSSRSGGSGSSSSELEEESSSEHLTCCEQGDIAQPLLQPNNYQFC

The term AC50 denotes the concentration at which the activity in the assay is half-maximal. For the compound `COc1ccc(/C=C2\SC(NCc3ccccc3)=NC2=O)cc1`, the AC50 in experiment [1] is 6020 nM (active).

Consider `Fc1ccc(/C=C/c2nc(-c3ccccc3)no2)cc1`, for which the IC50 in experiment [2] was 16000 nM (active); in [3] it was 3020 nM (active); in experiment [4], 1810 nM (active); in experiment [5] it was 5000 nM (active); in [6], 2090 nM (active); in [7], 2100 nM (active). Moreover, the IC50 was 1830 nM (active) in experiment [8] and 1700 nM (active) in experiment [9].

Broadly, the CC50 is the concentration at which the toxic effect on the cells reaches its halfway point. As to `COc1cccc(NC(=O)CSc2nc3ccccc3c(=O)[nH]2)c1`, the CC50 in experiment [10], in experiment [11], in experiment [12] and in experiment [13] was > 100000 nM (active) each time.

Consider `Cc1ccc(N2C(=O)C(=O)N(CC(=O)c3ccc[nH]3)C2=O)c(C)c1`, for which the IC50 in experiment [14] and in experiment [15] was > 99000 nM (inactive) each time.

A word on the Ki: it is a dissociation constant, usually derived from enzyme kinetics or from competition with a known ligand. For the compound `Cc1cc(C)cc(NC(=O)Nc2ccc(-c3ccnc4c3c(N)nn4C)cc2)c1`, the inhibition constant Ki is 1 nM (active) in experiment [16], 794 nM (active) in experiment [17], > 631 nM (inactive) in [18] and 2 nM (active) in [19].

For the compound `N#CC(c1cccc(Cl)c1)c1c(Cl)cnn(Cc2cccc3ccccc23)c1=O` (stereo not drawn), the IC50 in [20] and in experiment [21] was 260 nM (active) throughout.

By EC50 is commonly meant the concentration at which the effect is half-maximal. In the case of `CC(Cc1ccccc1Sc1ccccc1O)N(C)C` (stereo not drawn), the EC50 in experiment [22] is 944 nM (active). In [23], the AC50 was 15900 nM (active).

Source of the values: ChEMBL document CHEMBL1201862, “PubChem BioAssay data set” (2004).
